Results as given in US9211310B2, “Use of a Chinese medicine composition in preparing medicaments for treating secondary prevention of myocardial infarction” (TASLY PHARMACEUTICAL GROUP CO., LTD, priority 2010, dated 2015).

Tested on: patients after acute myocardial infarction
Assay: TCM symptom score, total and single (chest pain, chest tightness, short breath, fatigue, palpitation, spontaneous perspiration, pale complexion), same clinical trial
Type: in vivo, human
Parameters: total score of TCM symptom, Mean / total score of TCM symptom, Min / total score of TCM symptom, Max / total score of TCM symptom, Md / change of total score of TCM symptom, Mean / change of total score of TCM symptom, Max / change of total score of TCM symptom, Md: scale not given here
Details: FAS
Excerpt: 3508 patients who were in accordance with the diagnostic standards of AMI for 28 days to 2 years and differentiated as Qi deficiency and blood stagnation syndrome by TCM were studied. 0.5 g Chinese medicine composition prepared by the method of EXAMPLE 1 (Coded as QSYQ) was administrated half an hour after meal, 3 times per day.
They included the overall survival time, angina pectoris score, TCM symptom score and life quality score, where angina pectoris score, TCM symptom score and life quality score were evaluated at randomization, in 1st, 3rd, 6th, 9th, 12th month after treatment and 18th month after follow-up.
The analysis method referred to the angina pectoris score.

[1] = 6 months after treatment-baseline
[2] = 9 months after treatment-baseline

## CC(=O)Oc1ccccc1C(=O)O [Control group, aspirine]
[1]
  change of fatigue −2, number of patients: 108
  change of fatigue −4, % of patients: (0.70%)
  change of fatigue −4, number of patients: 12
  change of fatigue −6, % of patients: (0.00%)
  change of fatigue −6, number of patients: 0
  change of pale complexion 0, number of patients: 1322
  change of pale complexion 0, percent of patients: (77.40%)
  change of pale complexion 1, number of patients: 319
  change of pale complexion 1, percent of patients: (18.68%)
  change of pale complexion −1, number of patients: 67
  change of pale complexion −1, percent of patients: (3.92%)
  change of palpitation 0, number of patients: 1034
  change of palpitation 0, percent of patients: (60.47%)
  change of palpitation 1, number of patients: 490
  change of palpitation 1, percent of patients: (28.65%)
  change of palpitation 2, number of patients: 56
  change of palpitation 2, percent of patients: (3.27%)
  change of palpitation 3, number of patients: 9
  change of palpitation 3, percent of patients: (0.53%)
  change of palpitation −1, percent of patients: (6.78%)
  change of palpitation −2, number of patients: 5
  change of palpitation −2, percent of patients: (0.29%)
  change of palpitation −3, number of patients: 0
  change of palpitation −3, percent of patients: (0.00%)
  change of short breath 0, % of patients: (64.85%)
  change of short breath 0, number of patients: 1109
  change of short breath 2, % of patients: (25.44%)
  change of short breath 2, number of patients: 435
  change of short breath 4, % of patients: (2.98%)
  change of short breath 4, number of patients: 51
  change of short breath 6, % of patients: (0.53%)
  change of short breath 6, number of patients: 9
  change of short breath −2, % of patients: (5.96%)
  change of short breath −2, number of patients: 102
  change of short breath −4, % of patients: (0.12%)
  change of short breath −4, number of patients: 2
  change of short breath −6, % of patients: (0.12%)
  change of short breath −6, number of patients: 2
  change of spontaneous perspiration 0, number of patients: 959
  change of spontaneous perspiration 0, percent of patients: (56.11%)
  change of spontaneous perspiration 1, number of patients: 468
  change of spontaneous perspiration 1, percent of patients: (27.38%)
  change of spontaneous perspiration 2, number of patients: 93
  change of spontaneous perspiration 2, percent of patients: (5.44%)
  change of spontaneous perspiration 3, number of patients: 29
  change of spontaneous perspiration 3, percent of patients: (1.70%)
  change of spontaneous perspiration −1, number of patients: 137
  change of spontaneous perspiration −1, percent of patients: (8.02%)
  change of spontaneous perspiration −2, number of patients: 23
  change of spontaneous perspiration −2, percent of patients: (1.35%)
  change of spontaneous perspiration −3, number of patients: 0
  change of spontaneous perspiration −3, percent of patients: (0.00%)
  change of total score of TCM symptom, Max: 19.00
  change of total score of TCM symptom, Md: −3.00
  change of total score of TCM symptom, Mean: −3.76
  change of total score of TCM symptom, Min: −33.00
9 months after treatment
  distribution of total score of TCM symptom: Medium, number of patients: 345
  distribution of total score of TCM symptom: Medium, percentage of patients: (23.03%)
  distribution of total score of TCM symptom: Mild, number of patients: 1149
  distribution of total score of TCM symptom: Mild, percentage of patients: (76.70%)
  distribution of total score of TCM symptom: Severe, number of patients: 4
  distribution of total score of TCM symptom: Severe, percentage of patients: (0.27%)
  fatigue score 0, % of patients: (33.53%)
  fatigue score 0, number of patients: 576
  fatigue score 2, % of patients: (60.24%)
  fatigue score 2, number of patients: 1035
  fatigue score 4, % of patients: (5.12%)
  fatigue score 4, number of patients: 88
  fatigue score 6, % of patients: (1.11%)
  fatigue score 6, number of patients: 19
  pale complexion score 0, number of patients: 912
  pale complexion score 0, percent of patients: (53.08%)
  pale complexion score 1, number of patients: 653
  pale complexion score 1, percent of patients: (38.01%)
  pale complexion score 2, number of patients: 142
  pale complexion score 2, percent of patients: (8.27%)
  pale complexion score 3, number of patients: 11
  pale complexion score 3, percent of patients: (0.64%)
  palpitation score 0, number of patients: 581
  palpitation score 0, percent of patients: (33.82%)
  palpitation score 2, number of patients: 929
  palpitation score 2, percent of patients: (54.07%)
  palpitation score 4, number of patients: 179
  palpitation score 4, percent of patients: (10.42%)
  palpitation score 6, number of patients: 29
  palpitation score 6, percent of patients: (1.69%)
  short breath score 0, % of patients: (28.46%)
  short breath score 0, number of patients: 489
  short breath score 3, % of patients: (57.86%)
  short breath score 3, number of patients: 994
  short breath score 6, % of patients: (13.21%)
  short breath score 6, number of patients: 227
  short breath score 9, % of patients: (0.47%)
  short breath score 9, number of patients: 8
  spontaneous perspiration score 0, number of patients: 788
  spontaneous perspiration score 0, percent of patients: (45.87%)
  spontaneous perspiration score 1, number of patients: 813
  spontaneous perspiration score 1, percent of patients: (47.32%)
  spontaneous perspiration score 2, number of patients: 105
  spontaneous perspiration score 2, percent of patients: (6.11%)
  spontaneous perspiration score 3, number of patients: 12
  spontaneous perspiration score 3, percent of patients: (0.70%)
  total score of TCM symptom, Max: 37.00
  total score of TCM symptom, Md: 8.00
  total score of TCM symptom, Mean: 9.29
  total score of TCM symptom, Min: 0.00
[2]
  change of fatigue 0, % of patients: (50.53%)
  change of fatigue 0, number of patients: 864
  change of fatigue 2, % of patients: (33.45%)
  change of fatigue 2, number of patients: 572
  change of fatigue 4, % of patients: (7.31%)
  change of fatigue 4, number of patients: 125
  change of fatigue 6, % of patients: (1.17%)
  change of fatigue 6, number of patients: 20
  change of fatigue −2, % of patients: (6.73%)
  change of fatigue −2, number of patients: 115
  change of fatigue −4, % of patients: (0.76%)
  change of fatigue −4, number of patients: 13
  change of fatigue −6, % of patients: (0.06%)
  change of fatigue −6, number of patients: 1
  change of pale complexion 0, number of patients: 1284
  change of pale complexion 0, percent of patients: (75.18%)
  change of pale complexion 1, number of patients: 365
  change of pale complexion 1, percent of patients: (21.37%)
